Source: patent US10016517B2, “Bioactive amphiphilic polymer stabilized nanoparticles with enhanced stability and activity” (RUTGERS, THE STATE UNIVERSITY OF NEW JERSEY, priority 2011, dated 2018)

Tested on: human MDMs
Experiment: DiO oxLDL uptake by PBMC derived macrophages
Type: cell-based
Settings: MDMs co-incubated with PEG-b-PLA NPs loaded with M12 and DiO oxLDL
Description: Peripheral blood mononuclear cells (PBMC) were isolated from human buffy coats (Blood Center of New Jersey; East Orange, N.J.) by Ficoll-Paque (1.077 g mL^−1; GE Healthcare) density gradient. Monocytes were selected by plate adherence after two hours by washing thrice with PBS and cultured for 7 days in RPMI 1640 (ATCC) with 10% FBS, 1% Penicillin/Streptomycin and 50 ng mL^−1 M-CSF for differentiation into macrophages (MDM). Media was exchanged every two to three days. Primary Human Coronary Artery Smooth Muscle Cells (CASMC) (Lonza) between passages 3-6 were cultured in SM-GM2 media (Lonza). CASMC were plated on Type I Collagen coated wells for cytotoxicity experiments. […]
Human MDMs were co-incubated with 5 μg mL^−1 of 3,3′-dioctadecyloxacarbocyanine (DiO) labeled oxLDL (Kalen Biomedical; Montgomery Village, Md.) and either NPs or micelles for 24 h in the presence of 0 (serum-free), 5, 10 or 20% FBS. […] Cells were fixed and counterstained with Hoechst 33342 before epifluorescent imaging on a Nikon Eclipse TE2000-S. Uptake of oxLDL in MDMs was quantified by ImageJ and normalized to cell count. Analyzed data were from three independent experiments performed in triplicate.
Inhibition of oxLDL uptake in human MDMs by AM NPs and analogous micellar systems were determined (FIG. 3B-C). […] Uptake of oxLDL in MDMs was determined by ImageJ analysis of epifluorescent images. […]

Question: For “mucic acid modified with lauroyl groups [M12]”, which “therapeutic efficacy towards inhibiting oxLDL uptake” value is on record?
Answer: Its value is “no therapeutic efficacy”.
